Consider 9 compounds from US9326985B2, “Heteroaryl pyridone and aza-pyridone amide compounds” (Genentech, Inc., priority 2013, dated 2016).

The IC50 is the midpoint of a concentration-inhibition curve. A high value points to a need for much substance. One may read the Ki as the equilibrium dissociation constant of an inhibitor or competing ligand from its target. A higher Ki goes with a looser hold on the target.

The test system of experiment [1] is CD69 by B lymphocytes in human whole blood activated with goat F(ab')2 anti-human IgM. In words: CD69 Whole Blood Assay (CD69 Hu Blood FACS). As to conditions: Lymphocyte, CD69 positive of CD20 positive cells. It counts as cell-based. The procedure:
CD69 is a type II C-type lectin involved in lymphocyte migration and cytokine secretion.
Human blood is obtained from healthy volunteers, with the following restrictions: 1 week drug-free, non-smokers. Blood (approximately 20 mls to test 8 compounds) is collected by venipuncture into Vacutainer® (Becton, Dickinson and Co.) tubes with sodium heparin.
Solutions of Formula I compounds at 10 mM in DMSO are diluted 1:10 in 100% DMSO, then are diluted by three-fold serial dilutions in 100% DMSO for a ten point dose-response curve. The compounds are further diluted 1:10 in PBS and then an aliquot of 5.5 μl of each compound is added in duplicate to a 2 ml 96-well plate; 5.5 μl of 10% DMSO in PBS is added as control and no-stimulus wells. Human whole blood—HWB (100 μl) is added to each well. After mixing the plates are incubated at 37° C., 5% CO2, 100% humidity for 30 minutes. Goat F(ab′)2 anti-human IgM (10 μl of a 500 μg/ml solution, 50 μg/ml final) is added to each well (except the no-stimulus wells) with mixing and the plates are incubated for an additional 20 hours. At the end of the 20 hour incubation, samples are incubated with fluorescent labeled antibodies for 30 minutes, at 37° C., 5% CO2, 100% humidity. Include induced control, unstained and single stains for compensation adjustments and initial voltage settings. Samples are then lysed with PharM Lyse™ (BD Biosciences Pharmingen) according to the manufacturer's instructions. Samples are then transferred to a 96 well plate suitable to be run on the BD Biosciences HTS 96 well system on the LSRII machine. Data acquired and Mean Fluorescence Intensity values were obtained using BD Biosciences DIVA Software. Results are initially analyzed by FACS analysis software (Flow Jo).

Experiment [2] addresses T1, full length human wildtype Btk (Homo sapiens, UniProt Q06187).
T1 construct: V5 (C); 6xHis (C); made in house; host or cells: Sf9 insect cells (baculovirus, pFastBac)
In words: Biochemical Btk Assay (BTK LC3K). How it is done:
A generalized procedure for a standard biochemical Btk, Kinase Assay that can be used to test Formula I compounds is as follows. A master mix minus Btk enzyme is prepared containing 1× Cell Signaling kinase buffer (25 mM Tris-HCl, pH 7.5, 5 mM beta-glycerophosphate, 2 mM dithiothreitol, 0.1 mM Na3VO4, 10 mM MgCl2), 0.5 μM Promega PTK Biotinylated peptide substrate 2, and 0.01% BSA. A master mix plus Btk enzyme is prepared containing 1× Cell Signaling kinase buffer, 0.5 μM (micromolar) PTK Biotinylated peptide substrate 2, 0.01% BSA, and 100 ng/well (0.06 mU/well) Btk enzyme. Btk enzyme is prepared as follows: full length human wildtype Btk (accession number NM-000061) with a C-terminal V5 and 6×His tag was subcloned into pFastBac® vector (Invitrogen/Life Technologies) for making baculovirus carrying this epitope-tagged Btk. […] Passage 3 virus is used to infect Sf9 cells to overexpress the recombinant Btk protein. The Btk protein is then purified to homogeneity using Ni-NTA column. […] A solution of 200 μM ATP is prepared in water and adjusted to pH 7.4 with 1N NaOH. A quantity of 1.25 μL (microliter) of compounds in 5% DMSO is transferred to a 96-well ½ area Costar polystyrene plate. Compounds are tested singly and with an 11-point dose-responsive curve (starting concentration is 10 μM; 1:2 dilution). A quantity of 18.75 μL of master mix minus enzyme (as a negative control) and master mix plus enzyme is transferred to appropriate wells in 96-well ½ area costar polystyrene plate. 5 μL of 200 μM ATP is added to that mixture in the 96-well ½ area Costar polystyrene plate for final ATP concentration of 40 μM. The reaction is allowed to incubate for 1 hour at room temperature. The reaction is stopped with Perkin Elmer 1× detection buffer containing 30 mM EDTA, 20 nM SA-APC, and 1 nM PT66 Ab. […] IC50 values are subsequently calculated. Alternatively, the Lanthascreen assay can be used to evaluate Btk activity through quantification of its phosphorylated peptide product. The FRET (Fluorescence Resonance Energy Transfer) that occurs between the fluorescein on the peptide product and the terbium on the detection antibody decreases with the addition of inhibitors of Btk that reduce the phosphorylation of the peptide. In a final reaction volume of 25 uL, Btk (h) (0.1 ng/25 ul reaction) is incubated with 50 mM Hepes pH 7.5, 10 mM MgCl2, 2 mM MnCl2, 2 mM DTT, 0.2 mM NaVO4, 0.01% BSA, and 0.4 uM fluorescein poly-GAT. […] After incubation for 60 minutes at room temperature, the reaction is stopped by the addition of a final concentration of 2 nM Tb-PY20 detection antibody in 60 mM EDTA for 30 minutes at room temperature.

T1 sequence (Q06187 whole entry): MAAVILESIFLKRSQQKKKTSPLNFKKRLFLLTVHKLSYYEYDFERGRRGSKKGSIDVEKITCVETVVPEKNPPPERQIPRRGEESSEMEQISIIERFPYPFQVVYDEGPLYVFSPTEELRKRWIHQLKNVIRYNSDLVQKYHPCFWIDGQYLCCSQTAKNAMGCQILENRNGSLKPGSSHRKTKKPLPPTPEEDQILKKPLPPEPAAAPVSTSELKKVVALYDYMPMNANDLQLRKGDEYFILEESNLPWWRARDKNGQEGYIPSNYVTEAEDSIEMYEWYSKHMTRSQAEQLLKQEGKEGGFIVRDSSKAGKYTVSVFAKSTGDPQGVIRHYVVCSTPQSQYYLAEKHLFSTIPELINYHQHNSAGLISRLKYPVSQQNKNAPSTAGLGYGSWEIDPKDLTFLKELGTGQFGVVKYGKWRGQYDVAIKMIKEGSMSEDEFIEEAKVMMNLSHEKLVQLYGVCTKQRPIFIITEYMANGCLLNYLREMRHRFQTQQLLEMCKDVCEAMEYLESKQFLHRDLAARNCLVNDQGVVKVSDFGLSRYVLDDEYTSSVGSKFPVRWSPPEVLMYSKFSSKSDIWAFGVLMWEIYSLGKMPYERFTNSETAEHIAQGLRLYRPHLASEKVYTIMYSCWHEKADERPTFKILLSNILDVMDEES

Compound `CN1CC[C@]2(C[C@@H]2C(=O)Nc2cc(-c3ccnc(-n4ncc5cc(C(C)(C)C)cc(F)c5c4=O)c3CO)cn(C)c2=O)C1` (single isomer, unassigned) [Compound 173] showed an IC50 in experiment [1] (Table 2, anti-IgM stimulation) of over 4.8 µM. In experiment [2] (Table 2), this compound yielded a Ki of 0.026 µM.
On the same counts, the results for `CN1CC[C@@]2(C[C@@H]2C(=O)Nc2cc(-c3ccnc(-n4ncc5cc(C(C)(C)C)cc(F)c5c4=O)c3CO)cn(C)c2=O)C1` (single isomer, unassigned) [Compound 174] are 1.5 µM and 0.0072 µM.
Regarding `CN1CC[C@@]2(C[C@H]2C(=O)Nc2cc(-c3ccnc(-n4ncc5cc(C(C)(C)C)cc(F)c5c4=O)c3CO)cn(C)c2=O)C1` (single isomer, unassigned) [Compound 175], the IC50 in experiment [1] (Table 2, anti-IgM stimulation) is over 4.8 µM. The same compound came in with a Ki in experiment [2] (Table 2) of 0.0076 µM.
In experiment [1] (Table 1, anti-IgM stimulation), `Cn1cc(-c2ccnc(N3CCn4c(cc5c4CC(C)(C)C5)C3=O)c2CO)cc(NC(=O)CN2CCOCC2)c1=O` [Compound 105, N-[5-[2-(7,7-dimethyl-4-oxo-1,2,6,8-tetrahydrocyclopenta[3,4]pyrrolo[3,5-b]pyrazin-3-yl)-3-(hydroxymethyl)-4-pyridyl]-1-methyl-2-oxo-3-pyridyl]-2-morpholino-acetamide] returned a 50% inhibitory concentration (IC50) of over 5 µM. Moreover, the Ki in experiment [2] (Table 1) is over 0.0556 µM.
In the same order, the values of `CC1CC1C(=O)Nc1cc(-c2ccnc(N3CCn4c(cc5c4CC(C)(C)C5)C3=O)c2CO)cn(C)c1=O` (stereo not drawn) [Compound 106, N-[5-[2-(7,7-dimethyl-4-oxo-1,2,6,8-tetrahydrocyclopenta[3,4]pyrrolo[3,5-b]pyrazin-3-yl)-3-(hydroxymethyl)-4-pyridyl]-1-methyl-2-oxo-3-pyridyl]-2-methyl-cyclopropanecarboxamide] are 0.373 µM and 0.0106 µM.
In the same order, the values of `Cc1cc(C)n(CC(=O)Nc2cc(-c3ccnc(N4CCn5c(cc6c5CC(C)(C)C6)C4=O)c3CO)cn(C)c2=O)n1` [Compound 108, N-[5-[2-(7,7-dimethyl-4-oxo-1,2,6,8-tetrahydrocyclopenta[3,4]pyrrolo[3,5-b]pyrazin-3-yl)-3-(hydroxymethyl)-4-pyridyl]-1-methyl-2-oxo-3-pyridyl]-2-(3,5-dimethylpyrazol-1-yl)acetamide] are 2.4 µM and 0.0516 µM.
On the same counts, the results for `Cn1cc(C(=O)Nc2cc(-c3ccnc(N4CCn5c(cc6c5CC(C)(C)C6)C4=O)c3CO)cn(C)c2=O)cn1` [Compound 110, N-[5-[2-(7,7-dimethyl-4-oxo-1,2,6,8-tetrahydrocyclopenta[3,4]pyrrolo[3,5-b]pyrazin-3-yl)-3-(hydroxymethyl)-4-pyridyl]-1-methyl-2-oxo-3-pyridyl]-1-methyl-pyrazole-4-carboxamide] are over 2.6 µM and over 0.167 µM.
`Cc1cc(C(=O)Nc2cc(-c3ccnc(N4CCn5c(cc6c5CC(C)(C)C6)C4=O)c3CO)cn(C)c2=O)n[nH]1` [Compound 111, N-[5-[2-(7,7-dimethyl-4-oxo-1,2,6,8-tetrahydrocyclopenta[3,4]pyrrolo[3,5-b]pyrazin-3-yl)-3-(hydroxymethyl)-4-pyridyl]-1-methyl-2-oxo-3-pyridyl]-5-methyl-1H-pyrazole-3-carboxamide] had an IC50 in experiment [1] (Table 1, anti-IgM stimulation) of over 5.4 µM. In experiment [2] (Table 1), this compound came in with an inhibitory constant (Ki) of over 0.5 µM.
`Cc1cc(C(=O)Nc2cc(-c3ccnc(N4CCn5c(cc6c5CC(C)(C)C6)C4=O)c3CO)cn(C)c2=O)nn1C` [Compound 112, N-[5-[2-(7,7-dimethyl-4-oxo-1,2,6,8-tetrahydrocyclopenta[3,4]pyrrolo[3,5-b]pyrazin-3-yl)-3-(hydroxymethyl)-4-pyridyl]-1-methyl-2-oxo-3-pyridyl]-1,5-dimethyl-pyrazole-3-carboxamide]: in experiment [1] (Table 1, anti-IgM stimulation), the IC50 is over 5.8 µM. Further, the Ki in experiment [2] (Table 1) was over 0.5 µM.
